Results taken from patent US6043248A, “Alpha-substituted pyrimidine-thioalkyl and alkylether compounds as inhibitors of viral reverse transcriptase” (priority 1997, dated 2000).
Counter-ions that a name gives are not always drawn.

The compounds below were run against T1, viral reverse transcriptase (Wild Type) (Human immunodeficiency virus type 1 group M subtype B, UniProt P04585) (assay: inhibition of viral reverse transcriptase (Wild Type), cell free assay). Details: 30 minutes at 37° C.
T1 construct: Viral reverse transcriptase (Wild Type) is found in extracts from bacterial clones; made in house; host or cells: Escherichia coli
Type: biochemical
From the text: The utility of the pyrimidine-thioalkyl and alkylether anti-AIDS compounds of Formula IA of this invention can be determined by their ability to inhibit viral reverse transcriptase, an enzyme essential for human immunodeficiency virus replication. This enzyme has characteristics which differentiate it from other known cellular polymerases and it is a unique enzyme which is not found in uninfected cells. Viral reverse transcriptase (Wild Type) is found in extracts from bacterial clones prepared according to the procedure described in AIDS Virus Reverse Transcriptase defined by high level expression in Escherichia coli, EMBO J. 6:3133-3137 (1987). P236L viral reverse transcriptase is obtained by PNAS 90: 4713-4717 (1993). Inhibition of this enzyme is determined in a cell free assay which measures the level of radioactive precursors incorporated into DNA. Extracts prepared according to the procedure of Science, 1125-1129 (1981) are incubated in a mixture of inhibitor, 20 mM dithiothreitol, 60 mM sodium chloride, 0.05% NP-40, 10 mM magnesium chloride, 50 mM Tris pH 8.3, 10 μM [^35 S]-labeled deoxynuleoside-5'-triphosphate, 10 μg/ml RNA template (poly rC or poly rG) and 5 μg/ml DNA primer (oligo dG or oligo dT) for 30 minutes at 37° C. Incorporation of radio-labeled percursor is determined by spotting aliquots of the reaction mixture on DE81 paper, washing the papers to remove unincorporated percursor, drying and determining counts. The results (IC50 means the concentration, in μM of drug, required to inhibit the reverse transcriptase activity (P236L and Wild Type) to the extent of 50%) of various assay(s) are combined and reported as % inhibition and/or IC50 (calculated) in Table I (P236L) and Table II (Wild Type).

Structure (SMILES)	IC50 (Table II, Wild Type)
CCCCC(Sc1nc(N)cc(Cl)n1)c1cc(C)ccn1 (stereo not shown) [Example 224, 4-Amino-6-chloro-2-(1-(4-methyl-2-pyridyl)pentyl)thio-pyrimidine]	INACTIVE

Same assay, conditions: 30 minutes at 37° C., read-out: IC50 (Table II, Wild Type)

Structure (SMILES)	IC50
CCc1coc2c(Cl)nc(C(C)Sc3nc(N)cc(Cl)n3)cc12 (stereo not shown) [Example 251, 4-Amino-6-chloro-2-(1-(7-chloro-3-ethylfuro-[2,3c]pyridine-5yl)ethyl)thio-pyrimidine]	144 nM
CC(Sc1nc(N)cc(Cl)n1)c1cc2c(c(Cl)n1)OCC2(C)C (stereo not shown) [Example 250, 4-Amino-6-chloro-2-(1-(7-chloro-3,3-dimethyl-2,3-dihydrofuro[2,3c]pyridine-5-yl)ethyl)thio-pyrimidine]	153 nM
CC(C)c1coc2cnc(C(C)Sc3nc(N)cc(Cl)n3)cc12 (stereo not shown) [Example 252, 4-Amino-6-chloro-2-(1-(3-(1-methylethyl)furo[2,3c]-pyridin-5-yl)ethyl)thio-pyrimidine]	175 nM

Same assay, conditions: @ 1 μM

Structure (SMILES)	inhibition at 1 µM
CCCN(CCC)C(=O)/C=C/CSc1nc(N)cc(Cl)n1 [Example 202, (E)-N,N-Dipropyl-4-[(4-amino-6-chloro-2-pyrimidinyl)thio]-2-butenamide]	62%
CC(Sc1nc(N)c(Br)c(Cl)n1)c1nccc2c1CCCC2 (stereo not shown) [Example 236, 4-Amino-5-bromo-6-chloro-2-(1-(1-(5,6,7,8-tetrahydroisoquinolyl))ethyl)thio-pyrimidine]	58%
Nc1cc(Cl)nc(SC/C=C/C(=O)N2CCCC2)n1 [Example 199, (E)-1-[4-[(4-amino-6-chloro-2-pyrimidinyl)thio]-1-oxo-2-butenyl]pyrrolidine]	93%
C=CCN(C)C(=O)/C=C/CSc1nc(N)cc(Cl)n1 [Example 201, (E)-N-allyl-N-methyl-4-[(4-amino-6-chloro-2-pyrimidinyl)thio]-2-butenamide]	80%
CC(=O)c1ccnc(C(C)Sc2nc(N)cc(Cl)n2)c1 (stereo not shown) [Example 219, 4-Amino-6-chloro-2-(1-(4-acetyl-2-pyridyl)ethyl)thio-pyrimidine]	84%
CC(Sc1nc(N)cc(Cl)n1)c1nccc2ccccc12 (stereo not shown) [Example 232, 4-Amino-6-chloro-2-(1-(1-isoquinolyl)ethyl)thio-pyrimidine]	90%
CCN(C)C(=O)/C=C/CSc1nc(N)cc(Cl)n1 [Example 203, (E)-N-ethyl-N-methyl-4-[(4-amino-6-chloro-2-pyrimidinyl)thio]-2-butenamide]	96%

Same assay, conditions: @ 10 μM

Structure (SMILES)	inhibition at 10 µM
Nc1cc(Cl)nc(SC/C=C/C(=O)N2CCCCC2)n1 [Example 197, (E)-1-[4-[(4-amino-6-chloro-2-pyrimidinyl)thio]-1-oxo-2-butenyl]piperidine]	83%
CCN(CC)Cc1ccnc(C(C)Sc2nc(N)cc(Cl)n2)c1 (stereo not shown) [Example 228]	84%
CC(C)(Sc1nc(N)cc(Cl)n1)c1ccccn1 [Example 212, 4-Amino-6-chloro-2-(1-(2-pyridyl)-1-methylethyl)thio-pyrimidine]	57%
CC(Sc1nc(N)cc(Cl)n1)c1ccc2ccccc2c1 (stereo not shown) [Example 229, 4-Amino-6-chloro-2-(1-(2-naphthalenyl)ethyl)thio-pyrimidine]	90%
COC(=O)/C=C(\C)C(C)Sc1nc(N)cc(Cl)n1 (stereo not shown) [Example 209, (E)-4-[(4-Amino-6-chloro-2-pyrimidinyl)thio]-3-methyl-2-pentenoic acid methyl ester]	67%

Same assay, conditions: @ 50 μM

Structure (SMILES)	inhibition at 50 µM
CC(Sc1nc(N)cc(Cl)n1)c1cc(CN2CCOCC2)ccn1 (stereo not shown) [Example 227, 4-Amino-6-chloro-2-(1-(4-(4-morpholinyl)methyl-2-pyridyl)ethyl)thio-pyrimidine]	49%
Cc1ccnc(C(Sc2nc(N)cc(Cl)n2)C2CC2)c1 (stereo not shown) [Example 226, 4-Amino-6-chloro-2-(1-(4-methyl-2-pyridyl)-1-cyclopropyl-methyl)thio-pyrimidine mesylate]	79%
CCOC(=O)c1cc(N)nc(SCc2ccc3ccccc3c2)n1 [Example 305, 6-amino-2-(2-naphthylmethylthio)-pyrimidine-4-carboxylic acid ethyl ester]	21%
